In patent US7557213B2, “Substituted quinolones and methods of use” (ChemoCentryx, Inc., priority 2005, dated 2009) one finds IC50 data, which are given here for 30 compounds.

T1 sequence (P25106 whole entry): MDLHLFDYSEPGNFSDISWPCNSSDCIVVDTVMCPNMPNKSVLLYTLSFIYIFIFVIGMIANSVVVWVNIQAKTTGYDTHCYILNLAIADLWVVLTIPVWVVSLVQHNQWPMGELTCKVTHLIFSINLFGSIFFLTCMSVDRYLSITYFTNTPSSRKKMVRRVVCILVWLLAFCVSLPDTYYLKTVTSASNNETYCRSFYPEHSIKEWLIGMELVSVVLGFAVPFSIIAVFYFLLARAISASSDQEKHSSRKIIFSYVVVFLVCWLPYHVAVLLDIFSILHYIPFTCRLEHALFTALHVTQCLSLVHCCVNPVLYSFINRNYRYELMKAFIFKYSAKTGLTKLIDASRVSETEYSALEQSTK

This test addresses T1, CCXCKR2 receptor (Homo sapiens, UniProt P25106).
T1 construct: expressed in transfected cells; host or cells: MDA-MB-435S transfected with pcDNA3.1(+)-hRDC1 and/or MCF-7 (endogenous receptor)
Nature of the test: Displacement of 125I-labeled SDF-1 from the CCXCKR2 receptor on MCF-7 and/or CCXCKR2-transfected MDA-MB-435S cells (radioligand binding, filtration). The conditions noted are these: 125I SDF-1, 3 hr at 4° C., MCF-7 and/or MDA-MB-435S cells; read-out: Activity (concentration displacing at least 50% of the SDF-1 from the CCXCKR2 receptor).
As for `Cc1cc(C)cc(C(=O)c2cn(Cc3cccc(Br)n3)c3ccccc3c2=O)c1` [Example 104], the IC50 is less than 0.1 µM.

On to `Cc1ccc(C(=O)c2cn(Cc3cccnc3)c3cc4c(cc3c2=O)OCO4)cc1C` [Example 2], for which the IC50 was 0.5 to 20 µM. For the compound `COc1ccc(C(=O)c2cn(Cc3cccc(Br)n3)c3ccccc3c2=O)cc1C` [Example 98], the IC50 was less than 0.1 µM. As for `CC(=O)Nc1cccc(Cn2cc(C(=O)c3ccc(C)c(C)c3)c(=O)c3ccccc32)n1` [Example 52], the figure is 0.1 to 0.5 µM. As for `Cc1ccc(C(=O)c2cn(Cc3cccc(Br)n3)c3ccc(F)cc3c2=O)cc1C` [Example 53], the figure is less than 0.1 µM; as for `COc1ccc(C(=O)c2cn(Cc3cccc(Cl)c3)c3ccccc3c2=O)cc1` [Example 243], less than 0.1 µM. In the case of `Cc1ccc(C(=O)c2cn(Cc3ccccc3F)c3ccccc3c2=O)cc1C` [Example 4], the IC50 is less than 0.1 µM. Consider `O=C(c1ccc(C(F)(F)F)nc1)c1cn(Cc2cccc(Br)n2)c2ccccc2c1=O` [Example 133], for which the IC50 is less than 0.1 µM.

Take `Cc1ccc(C(=O)c2cn(Cc3cccc(N4CCCCC4)n3)c3ccccc3c2=O)cc1C` [Example 68]: the IC50 was less than 0.1 µM. As for `O=C(c1ccc2c(c1)OCCO2)c1cn(Cc2cccc(Br)n2)c2ncccc2c1=O` [Example 175], the figure is less than 0.1 µM; as for `COc1ncc(C(=O)c2cn(Cc3cccc(Cl)c3)c3ccccc3c2=O)cc1C` [Example 240], less than 0.1 µM; as for `COc1ccc(C(=O)c2cn(Cc3cccc(Br)n3)c3ccccc3c2=O)nc1C` [Example 242], less than 0.1 µM. As for `Cc1ccc(C(=O)c2cn(Cc3cccc(NC(=O)C(F)(F)F)n3)c3ccccc3c2=O)cc1C` [Example 87], the figure is less than 0.1 µM; as for `COCCOc1ccc(C(=O)c2cn(Cc3cccc(Br)n3)c3ccccc3c2=O)cc1C` [Example 127], 0.1 to 0.5 µM; as for `Cc1cccc(Cn2cc(C(=O)c3ccc(C)c(C)c3)c(=O)c3cnccc32)c1` [Example 47], 0.1 to 0.5 µM. As for `Cc1ccc(C(=O)c2cn(Cc3ccccn3)c3ccccc3c2=O)cc1C` [Example 8], the figure is less than 0.1 µM; as for `Cc1cccc(Cn2cc(C(=O)c3cnc(C)c(C)c3)c(=O)c3cc(F)ccc32)c1` [Example 55], less than 0.1 µM. For `Cc1ccc(C(=O)c2cn(Cc3ccccc3F)c3cc4c(cc3c2=O)OCCO4)cc1C` [Example 7], the IC50 fell in the range of 0.5 to 20 µM. As for `O=C(c1ccc2c(c1)OCCO2)c1cn(Cc2cccc(C(F)(F)F)c2)c2ccccc2c1=O` [Example 232], the IC50 was in the range of 0.1 to 0.5 µM. Next, `O=C(c1ccncc1)c1cn(Cc2ccccc2F)c2ccccc2c1=O` [Example 15]: 0.5 to 20 µM; `Cc1ccc(C(=O)c2cn(Cc3ccncc3)c3cc4c(cc3c2=O)OCO4)cc1C` [Example 3]: 0.5 to 20 µM; `Cc1ccc(C(=O)c2cn(Cc3ccccc3-c3cncnc3)c3ccccc3c2=O)cc1C` [Example 95]: 0.5 to 20 µM.

On to `COc1ccc(C(=O)c2cn(Cc3cccc(C)n3)c3ncccc3c2=O)cc1F` [Example 163], for which the IC50 is less than 0.1 µM.

As to `COc1ccc(C(=O)c2cn(Cc3cccc(C)n3)c3ncccc3c2=O)cc1C` [Example 162], the IC50 is less than 0.1 µM. As for `Cc1cccc(Cn2cc(C(=O)c3ccc4c(c3)OCCO4)c(=O)c3cccnc32)n1` [Example 164], the figure is less than 0.1 µM; as for `Cc1cccc(C(=O)c2cn(Cc3ccccn3)c3ccccc3c2=O)c1` [Example 22], less than 0.1 µM; as for `Cc1cccc(Cn2cc(C(=O)c3cnc4c(c3)OCCO4)c(=O)c3cc(C)c(C)nc32)n1` [Example 191], 0.1 to 0.5 µM.

Turning to `Cc1ccc(C(=O)c2cn(Cc3cccc(-c4ncco4)n3)c3ccccc3c2=O)cc1C` [Example 41], the IC50 is 0.1 to 0.5 µM. Next, `Cc1ccc(C(=O)c2cn(Cc3cccc(C(F)(F)F)n3)c3ccccc3c2=O)nc1C` [Example 79]: less than 0.1 µM; `Cc1ccc(C(=O)c2cn(Cc3cccc(N)n3)c3ccccc3c2=O)nc1C` [Example 90]: less than 0.1 µM.
